target: Methionine--tRNA ligase (Escherichia coli) (UniProt P00959); test: Inhibitory concentration against methionyl-tRNA synthetase was determined by measuring decrease of the aminoacylation product [35S]- methionyl tRNA of Escherichia coli
Sequence (P00959 whole entry, looked up): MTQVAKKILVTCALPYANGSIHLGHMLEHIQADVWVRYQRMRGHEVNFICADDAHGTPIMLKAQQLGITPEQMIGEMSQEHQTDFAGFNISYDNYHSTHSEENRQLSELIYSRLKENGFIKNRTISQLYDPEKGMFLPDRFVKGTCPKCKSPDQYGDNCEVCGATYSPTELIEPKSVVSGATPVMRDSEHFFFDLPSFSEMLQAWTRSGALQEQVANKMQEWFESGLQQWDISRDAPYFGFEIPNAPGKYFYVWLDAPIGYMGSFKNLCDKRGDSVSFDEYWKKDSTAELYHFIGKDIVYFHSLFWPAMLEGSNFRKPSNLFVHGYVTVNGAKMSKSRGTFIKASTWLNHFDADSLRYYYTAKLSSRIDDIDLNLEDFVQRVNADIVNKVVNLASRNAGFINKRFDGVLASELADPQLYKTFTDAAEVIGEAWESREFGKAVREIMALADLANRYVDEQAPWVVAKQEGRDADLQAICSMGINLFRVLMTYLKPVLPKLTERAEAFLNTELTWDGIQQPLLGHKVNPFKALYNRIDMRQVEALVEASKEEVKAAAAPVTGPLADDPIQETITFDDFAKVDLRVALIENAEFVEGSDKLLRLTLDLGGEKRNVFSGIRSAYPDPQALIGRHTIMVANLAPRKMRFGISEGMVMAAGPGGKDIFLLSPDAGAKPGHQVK

Row | IC50 | SMILES
1 | 87 µM | COc1ccc(CC(=O)N(O)CCOC(=O)[C@@H](N)CCSC)cc1O [(S)-1-(2-{Hydroxy-[2-(3-hydroxy-4-methoxy-phenyl)-acetyl]-amino}-ethoxycarbonyl)-3-methylsulfanyl-propyl-ammonium]
2 | 128 µM | COc1cc(CC(=O)N(O)CCOC(=O)[C@@H](N)CCSC)ccc1O [(S)-1-(2-{Hydroxy-[2-(4-hydroxy-3-methoxy-phenyl)-acetyl]-amino}-ethoxycarbonyl)-3-methylsulfanyl-propyl-ammonium]
3 | 78 µM | COc1ccc(C(=O)NCCOC(=O)[C@@H](N)CCSC)cc1O [(S)-1-[2-(3-Hydroxy-4-methoxy-benzoylamino)-ethoxycarbonyl]-3-methylsulfanyl-propyl-ammonium]
4 | 60 µM | COc1cc(C(=O)NCCOC(=O)[C@@H](N)CCSC)ccc1O [(S)-1-[2-(4-Hydroxy-3-methoxy-benzoylamino)-ethoxycarbonyl]-3-methylsulfanyl-propyl-ammonium]
5 | 47 µM | COc1ccc(C2=NOC(COC(=O)[C@@H](N)CCSC)C2)cc1O (stereo partly drawn) [(S)-1-[3-(3-Hydroxy-4-methoxy-phenyl)-4,5-dihydro-isoxazol-5-ylmethoxycarbonyl]-3-methylsulfanyl-propyl-ammonium]
6 | 164 µM | COc1ccc(CC(=O)NCCOC(=O)[C@@H](N)CCSC)cc1O [(S)-1-{2-[2-(3-Hydroxy-4-methoxy-phenyl)-acetylamino]-ethoxycarbonyl}-3-methylsulfanyl-propyl-ammonium]
7 | 94 µM | COc1cc(CC(=O)NCCOC(=O)[C@@H](N)CCSC)ccc1O [(S)-1-{2-[2-(4-Hydroxy-3-methoxy-phenyl)-acetylamino]-ethoxycarbonyl}-3-methylsulfanyl-propyl-ammonium]
8 | 72 µM | COc1ccc(C(=O)N(O)CCOC(=O)[C@@H](N)CCSC)cc1O [(S)-1-{2-[Hydroxy-(3-hydroxy-4-methoxy-benzoyl)-amino]-ethoxycarbonyl}-3-methylsulfanyl-propyl-ammonium]
9 | 32.5 µM | COc1cc(C(=O)N(O)CCOC(=O)[C@@H](N)CCSC)ccc1O [(S)-1-{2-[Hydroxy-(4-hydroxy-3-methoxy-benzoyl)-amino]-ethoxycarbonyl}-3-methylsulfanyl-propyl-ammonium]

More lines, now with the values behind:

Row | SMILES | IC50
10 | COc1cc(C2=NOC(COC(=O)[C@@H](N)CCSC)C2)ccc1O (stereo partly drawn) [(S)-1-[3-(4-Hydroxy-3-methoxy-phenyl)-4,5-dihydro-isoxazol-5-ylmethoxycarbonyl]-3-methylsulfanyl-propyl-ammonium] | 58 µM
11 | COc1cc(C2=N[C@H](COC(=O)[C@@H](N)CCSC)CO2)ccc1O [(S)-1-[(S)-2-(4-Hydroxy-3-methoxy-phenyl)-4,5-dihydro-oxazol-4-ylmethoxycarbonyl]-3-methylsulfanyl-propyl-ammonium] | 33.5 µM

target: not listed separately; test: as above

Row | IC50 | SMILES
12 | 39 µM | COc1cc(C2=N[C@@H](COC(=O)[C@@H](N)CCSC)CO2)ccc1O [(S)-1-[(R)-2-(4-Hydroxy-3-methoxy-phenyl)-4,5-dihydro-oxazol-4-ylmethoxycarbonyl]-3-methylsulfanyl-propyl-ammonium]

target: Isoleucine--tRNA ligase (Escherichia coli) (UniProt P00956); test: Inhibitory concentration against isoleucyl-tRNA synthetase was determined by measuring decrease of the aminoacylation product [3H]- isoleucyl tRNA of Escherichia coli
Sequence (P00956 whole entry, looked up): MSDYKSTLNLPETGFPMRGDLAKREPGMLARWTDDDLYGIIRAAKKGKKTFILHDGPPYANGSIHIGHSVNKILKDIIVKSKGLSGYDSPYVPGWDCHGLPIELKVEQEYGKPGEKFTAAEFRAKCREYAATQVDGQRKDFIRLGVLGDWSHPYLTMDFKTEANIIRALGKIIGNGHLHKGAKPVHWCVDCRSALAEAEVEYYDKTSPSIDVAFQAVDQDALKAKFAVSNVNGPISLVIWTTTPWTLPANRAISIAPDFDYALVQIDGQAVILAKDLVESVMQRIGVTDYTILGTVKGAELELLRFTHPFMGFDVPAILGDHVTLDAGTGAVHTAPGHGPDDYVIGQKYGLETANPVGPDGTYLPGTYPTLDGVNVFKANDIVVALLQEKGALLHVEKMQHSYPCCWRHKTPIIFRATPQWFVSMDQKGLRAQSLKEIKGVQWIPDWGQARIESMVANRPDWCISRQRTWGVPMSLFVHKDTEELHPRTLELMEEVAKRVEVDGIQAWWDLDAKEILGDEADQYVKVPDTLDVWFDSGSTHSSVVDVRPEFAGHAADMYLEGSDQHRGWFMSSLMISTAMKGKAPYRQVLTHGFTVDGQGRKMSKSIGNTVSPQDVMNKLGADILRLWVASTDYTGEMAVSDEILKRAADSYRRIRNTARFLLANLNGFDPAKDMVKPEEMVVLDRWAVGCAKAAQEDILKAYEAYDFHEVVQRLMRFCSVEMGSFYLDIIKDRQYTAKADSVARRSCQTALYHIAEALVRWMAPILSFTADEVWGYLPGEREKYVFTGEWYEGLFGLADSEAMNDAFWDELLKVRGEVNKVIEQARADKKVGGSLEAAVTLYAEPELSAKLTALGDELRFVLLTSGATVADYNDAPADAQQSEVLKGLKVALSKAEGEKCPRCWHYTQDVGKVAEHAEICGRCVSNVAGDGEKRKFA

Row | IC50 | SMILES
13 | 21 µM | CCC(C)[C@H](N)C(=O)OCCN(O)C(=O)Cc1ccc(OC)c(O)c1 (stereo partly drawn) [(S)-1-(2-{Hydroxy-[2-(3-hydroxy-4-methoxy-phenyl)-acetyl]-amino}-ethoxycarbonyl)-2-methyl-butyl-ammonium]
14 | 4.5 µM | CCC(C)[C@H](N)C(=O)OCCN(O)C(=O)c1ccc(OC)c(O)c1 (stereo partly drawn) [(S)-1-{2-[Hydroxy-(3-hydroxy-4-methoxy-benzoyl)-amino]-ethoxycarbonyl}-2-methyl-butyl-ammonium]
15 | 12.8 µM | CCC(C)[C@H](N)C(=O)OCCN(O)C(=O)c1ccc(O)c(OC)c1 (stereo partly drawn) [(S)-1-{2-[Hydroxy-(4-hydroxy-3-methoxy-benzoyl)-amino]-ethoxycarbonyl}-2-methyl-butyl-ammonium]

The remaining lines, values behind:

Row | SMILES | IC50
16 | CCC(C)[C@H](N)C(=O)OCCN(O)C(=O)Cc1ccc(O)c(OC)c1 (stereo partly drawn) [(S)-1-(2-{Hydroxy-[2-(4-hydroxy-3-methoxy-phenyl)-acetyl]-amino}-ethoxycarbonyl)-2-methyl-butyl-ammonium] | 228 µM
17 | CCC(C)[C@H](N)C(=O)OCCNC(=O)c1ccc(OC)c(O)c1 (stereo partly drawn) [(S)-1-[2-(3-Hydroxy-4-methoxy-benzoylamino)-ethoxycarbonyl]-2-methyl-butyl-ammonium] | 106 µM
18 | CCC(C)[C@H](N)C(=O)OCCNC(=O)c1ccc(O)c(OC)c1 (stereo partly drawn) [(S)-1-[2-(4-Hydroxy-3-methoxy-benzoylamino)-ethoxycarbonyl]-2-methyl-butyl-ammonium] | 64.4 µM
19 | CCC(C)[C@H](N)C(=O)OCC1CC(c2ccc(OC)c(O)c2)=NO1 (stereo partly drawn) [(S)-1-[3-(3-Hydroxy-4-methoxy-phenyl)-4,5-dihydro-isoxazol-5-ylmethoxycarbonyl]-2-methyl-butyl-ammonium] | 57.6 µM
20 | CCC(C)[C@H](N)C(=O)OCC1CC(c2ccc(O)c(OC)c2)=NO1 (stereo partly drawn) [(S)-1-[3-(4-Hydroxy-3-methoxy-phenyl)-4,5-dihydro-isoxazol-5-ylmethoxycarbonyl]-2-methyl-butyl-ammonium] | 79 µM
21 | CCC(C)[C@H](N)C(=O)OC[C@@H]1COC(c2ccc(O)c(OC)c2)=N1 (stereo partly drawn) [(S)-1-[(S)-2-(4-Hydroxy-3-methoxy-phenyl)-4,5-dihydro-oxazol-4-ylmethoxycarbonyl]-2-methyl-butyl-ammonium] | 38.6 µM
22 | CCC(C)[C@H](N)C(=O)OCCNC(=O)Cc1ccc(OC)c(O)c1 (stereo partly drawn) [(S)-1-{2-[2-(3-Hydroxy-4-methoxy-phenyl)-acetylamino]-ethoxycarbonyl}-2-methyl-butyl-ammonium] | 56.5 µM
23 | CCC(C)[C@H](N)C(=O)OCCNC(=O)Cc1ccc(O)c(OC)c1 (stereo partly drawn) [(S)-1-{2-[2-(4-Hydroxy-3-methoxy-phenyl)-acetylamino]-ethoxycarbonyl}-2-methyl-butyl-ammonium] | 45 µM

target: Isoleucine--tRNA ligase (Escherichia coli) (UniProt P00956); test: as above; remark: another data set of the same source

Row | IC50 | SMILES
24 | 50 µM | CCC(C)[C@H](N)C(=O)OC[C@H]1COC(c2ccc(O)c(OC)c2)=N1 (stereo partly drawn) [(S)-1-[(R)-2-(4-Hydroxy-3-methoxy-phenyl)-4,5-dihydro-oxazol-4-ylmethoxycarbonyl]-2-methyl-butyl-ammonium]

Reference: BindingDB's records for doi:10.1016/s0960-894x(01)00096-8 (Seoul National University, 2001)
